# Measurements from patent EP1914304A1 (priority 1998, dated 1999).
# Key:
# [1] = tested on: E. coli KY895 harboring HSV-1 TK mutant F1611; test: Colony formation on acyclovir or AZT plates (secondary screen); format: cell-based; details: TK selection plates, 1 µg/mL thymidine + 1µg/mL acyclovir or 0.05 µg/mL AZT, 37°C, 16-24 hours
# Description: (§1) […]. Mutant cultures were also spread onto duplicate TK selection and LB + carb^50 plates. One set of TK selection plates and LB + carb^50 plates were incubated at 42°C. All other plates were incubated at 37°C. After 16-24 hours the plates were scored.
# [2] = tested on: E. coli KY895 harboring HSV-1 TK mutant R163P/H164Q; test: as above; format: cell-based; details: TK selection plates, 1 µg/mL thymidine + 1µg/mL acyclovir or 0.05 µg/mL AZT, 37°C, 16-24 hours
# Description: as §1
# [3] = tested on: E. coli KY895 harboring HSV-1 TK mutant F161L; test: as above; format: cell-based; design: key: (++) indicates that the same number of colonies were observed as compared to control plates; (+) indicates that fewer (<20% those observed with pMCC) and generally smaller (~50°,% smaller diameter) colonies were observed as compared to control plates; (-) indicates that no colonies were observed; details: TK selection plates, 1 µg/mL thymidine + 1µg/mL acyclovir or 0.05 µg/mL AZT, 37°C, 16-24 hours
# Description: as §1
# [4] = tested on: E. coli KY895 harboring HSV-1 TK mutant P155A/F161V; test: as above; format: cell-based; design: key: (++) indicates that the same number of colonies were observed as compared to control plates; (+) indicates that fewer (<20% those observed with pMCC) and generally smaller (~50°,% smaller diameter) colonies were observed as compared to control plates; (-) indicates that no colonies were observed; details: TK selection plates, 1 µg/mL thymidine + 1µg/mL acyclovir or 0.05 µg/mL AZT, 37°C, 16-24 hours
# Description: as §1
# [5] = tested on: E. coli KY895 harboring pMCC (wild-type HSV-1 TK); test: as above; format: cell-based; design: key: (++) indicates that the same number of colonies were observed as compared to control plates; (+) indicates that fewer (<20% those observed with pMCC) and generally smaller (~50°,% smaller diameter) colonies were observed as compared to control plates; (-) indicates that no colonies were observed; details: TK selection plates, 1 µg/mL thymidine + 1µg/mL acyclovir or 0.05 µg/mL AZT, 37°C, 16-24 hours
# Description: as §1
# [6] = tested on: E. coli KY895 harboring HSV-1 TK mutant F1611/R163H; test: as above; format: cell-based; design: key: (++) indicates that the same number of colonies were observed as compared to control plates; (+) indicates that fewer (<20% those observed with pMCC) and generally smaller (~50°,% smaller diameter) colonies were observed as compared to control plates; (-) indicates that no colonies were observed; details: TK selection plates, 1 µg/mL thymidine + 1µg/mL acyclovir or 0.05 µg/mL AZT, 37°C, 16-24 hours
# Description: as §1
# [7] = tested on: E. coli KY895 harboring HSV-1 TK mutant F161C; test: as above; format: cell-based; design: key: (++) indicates that the same number of colonies were observed as compared to control plates; (+) indicates that fewer (<20% those observed with pMCC) and generally smaller (~50°,% smaller diameter) colonies were observed as compared to control plates; (-) indicates that no colonies were observed; details: TK selection plates, 1 µg/mL thymidine + 1µg/mL acyclovir or 0.05 µg/mL AZT, 37°C, 16-24 hours
# Description: as §1
# [8] = molecular target: T1, HSV-1 thymidine kinase mutant 75 (LIF-ALL library, codons 159-161 and 168-170 randomized; pET23d:75) (Human herpesvirus 1, UniProt P0DTH5); details: Table V
# T1 sequence (P0DTH5 1-376): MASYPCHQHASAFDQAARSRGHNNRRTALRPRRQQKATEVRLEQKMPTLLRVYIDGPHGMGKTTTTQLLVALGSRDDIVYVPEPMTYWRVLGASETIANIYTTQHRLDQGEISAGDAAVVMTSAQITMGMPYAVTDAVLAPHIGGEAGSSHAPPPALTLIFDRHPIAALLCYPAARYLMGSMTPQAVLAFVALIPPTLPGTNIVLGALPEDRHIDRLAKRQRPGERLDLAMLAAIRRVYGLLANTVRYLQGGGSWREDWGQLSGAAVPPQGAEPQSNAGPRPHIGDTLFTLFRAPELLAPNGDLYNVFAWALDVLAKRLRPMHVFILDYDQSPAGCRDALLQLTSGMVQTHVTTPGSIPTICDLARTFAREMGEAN
# Description: The culture is incubated at 37°C overnight. The following day the 5ml culture is used to inoculate 1L M9ZB + cabenicillin at 20µg/ml and the culture allowed to grow at 37°C to OD600 0.1. At that point IPTG is added to 0.4mM and the culture incubated a further 3 hours. The cells are chilled on ice, pelleted by centrifugation and the pellets washed once in cell wash buffer (50mM Tris, pH 7.5, 5mM EDTA, 10% sucrose) prior to freezing the pellets at -70°C. The next day the cells are resuspended in 12ml Buffer 1 (50mM Tris, pH 7.5, 10% sucrose, 2mM DTT, 5mM EDTA, 1mM PMSF) and the volume split into two 13ml Oakridge ultracentrifuge tubes. 1ml Buffer 1 containing 3mg lysozyme is added to each tube and the tubes left on ice for 1 hr. […] The cleared supernatant is then aliquoted and frozen at -70°C.
# The 1ml bed volume column is prepared by passing 10ml Buffer 1 followed by 10ml Absorption Buffer (50mM Tris, pH 7.5, 10% sucrose, 2mM DTT, 25mM MgAc2, 10mM ATP) over the column. Two ml of the cleared lysate is mixed with 2 ml of Absorption Buffer and passed through a 0.2µm filter. This mix is passed over the column 3 times. The column is washed with 5ml Absorption buffer three times and the 5ml fractions collected. […] The column is reactivated by loading on 10ml High Salt Buffer (50mM Tris, pH 7.5, 10% sucrose, 2mM DTT, 0.5M KCl) and 10ml 50mM Tris, pH 7.5. The column is stored in 50mM Tris pH 7.5 + 0.004% sodium azide. The extent of purification is monitored by Coomassie stained SDS:PAGE analysis and the concentration of purified protein determined using the BioRad Reagent (Bradford Reagent).
# Km and Vmax values are determined from double reciprocal plots and kcat values are calculated using the equation Vmax = kcat [Eo] where [Eo] is the total enzyme concentration. The BioRad reagent was used to determine the total enzyme concentration of purified thymidine kinase enzymes.
# [9] = tested on: Rat C6 cells expressing wild-type TK; test: Rat C6 kill curves with GCV and ACV; format: cell-based; details: Table VIII
# Text: (§2) The seven mutants were subcloned into the mammalian expression vector, pREP8D7:dualGFP. This vector contains a constitutive metallothionin promoter, which drives the expression of green flourescent protein (GFP), and an RSV LTR promoter, which stimulated expression of the TK mutants. The vector also contains a histidinol resistance gene for selection of transformants. Purified vector DNA of these constructs was used to transfect BHK tk- cells by electroporation. The transfectants were selected by resistance to histidinol and sorted using FACS analysis for GFP expression. Pools of transfectants were then assayed for sensitivity to GCV or ACV over a range of prodrug doses. […] Table VIII illustrates the IC50 values from Rat C6 kill curves with the SR11, SR26, and SR39 mutants.
# [10] = tested on: Rat C6 cells expressing TK mutant 75; test: Rat C6 kill curves with GCV and ACV; format: cell-based; details: Table VIII
# Text: as §2
# [11] = tested on: Rat C6 cells expressing TK mutant SR39; test: Rat C6 kill curves with GCV and ACV; format: cell-based; details: Table VIII
# Text: as §2
# [12] = tested on: Rat C6 cells expressing TK mutant 30; test: Rat C6 kill curves with GCV and ACV; format: cell-based; details: Table VIII
# Text: as §2
# [13] = tested on: Rat C6 cells expressing TK mutant SR11; test: Rat C6 kill curves with GCV and ACV; format: cell-based; details: Table VIII
# Text: as §2
# [14] = tested on: Rat C6 cells expressing TK mutant 411; test: Rat C6 kill curves with GCV and ACV; format: cell-based; details: Table VIII
# Text: as §2
# [15] = tested on: Rat C6 cells expressing TK mutant SR26; test: Rat C6 kill curves with GCV and ACV; format: cell-based; details: Table VIII
# Text: as §2
SMILES,colony formation on nucleoside analogue plates [1],colony formation on nucleoside analogue plates [2],colony formation on nucleoside analogue plates [3],colony formation on nucleoside analogue plates [4],colony formation on nucleoside analogue plates [5],colony formation on nucleoside analogue plates [6],colony formation on nucleoside analogue plates [7],Km ([8]; double reciprocal plots) [µM],kcat ([8]; per active site),IC50 [9] [µM],IC50 [10] [µM],IC50 [11] [µM],IC50 [12] [µM],IC50 [13] [µM],IC50 [14] [µM],IC50 [15] [µM]
"Cc1cn([C@H]2C[C@H](N=[N+]=[N-])[C@@H](CO)O2)c(=O)[nH]c1=O [AZT, 3' azido-3' thymidine]","+ ((+) indicates that fewer (<20% those observed with pMCC) and generally smaller (~50°,% smaller diameter) colonies were observed as compared to control plates)","+ ((+) indicates that fewer (<20% those observed with pMCC) and generally smaller (~50°,% smaller diameter) colonies were observed as compared to control plates)",++,"+ ((+) indicates that fewer (<20% those observed with pMCC) and generally smaller (~50°,% smaller diameter) colonies were observed as compared to control plates)",++,++,-,,,,,,,,,
Nc1nc2c(ncn2COCCO)c(=O)[nH]1 [acyclovir],"+ ((+) indicates that fewer (<20% those observed with pMCC) and generally smaller (~50°,% smaller diameter) colonies were observed as compared to control plates)","+ ((+) indicates that fewer (<20% those observed with pMCC) and generally smaller (~50°,% smaller diameter) colonies were observed as compared to control plates)",++,++,++,++,"+ ((+) indicates that fewer (<20% those observed with pMCC) and generally smaller (~50°,% smaller diameter) colonies were observed as compared to control plates)",23,.010 s⁻¹,> 20,> 20,0.11,0.26,6,14,0.76
